Laboratory results reported in patent publication US5734013A, “Peptides having farnesyl transferase inhibiting properties and strain of genus streptomyces for producing same” (Rhone-Poulenc Rorer S.A., priority 1994, dated 1998).
Starred links: 1 amine or outer side, 2 acyl side, 3 side chain; linkers in the order of their positions; H or OH if unused. Positions of bridges follow the written chain, without caps; N, C: chain ends. Non-standard residues stand in square brackets, D forms with d. Residues, ends and D or L forms follow the SMILES beside them. *: point of attachment. Trp(5-OH) = N[CH](Cc1c[nH]c2ccc(O)cc12)C(=O)O; Propanoyl(3-cHex) = O=C(CCC1CCCCC1)*; Hpg = N[CH](C(=O)O)c1ccc(O)cc1; NMeF = CN[CH](Cc1ccccc1)C(=O)O; X1 = CC1CC1(N[*:1])C(=O)[*:2]; Ac3c = NC1(C(=O)O)CC1

Molecular target: T1, farnesyl transferase (Ftase) (Homo sapiens, UniProt P49354+P49356)
T1 construct: This enzyme was partially purified from human THP1 cells; endogenous in cells; host or cells: human THP1 cells (enzyme partially purified)
Assay: Scintillation proximity assay (SPA) test for farnesyl transferase inhibition
Type: biochemical
Details: Ftase partially purified from human THP1 cells; biotinylated B lamin peptide (BLB) 0.1 μM, 3HFPP 0.12 μM; 37° C., 60 minutes
Description: The principle of SPA (scintillation proximity assay) technology is applied to assaying the enzymic activity of farnesyl transferase. According to this method, farnesyl transferase inhibitory activity is determined by the quantity of (^3 H)-farnesyl which is transferred from (^3 H)-farnesyl pyrophosphate ((^3 H) FPP) to a biotinylated acceptor substrate.
The acceptor substrate, which is biotinylated, is a peptide of 11 amino acids corresponding to the terminal sequence of B lamin (BLB). The donor substrate, farnesyl pyrophosphate, is labelled with tritrium (^3 HFPP). […] The radio-labelled peptide excites the beads, which then emit light which is quantified in a solid-liquid scintillation counter (Topcount®, Packard).
The SPA reaction is started by adding 40 μl of Ftase (2 μg) to a microtitre plate which contains 20 μl of BLB (0.1 μM), 20 μl of ^3 HFPP (0.12 μM) and 20 μl of assay buffer 50 mM Hepes, pH 7.5, 5 mM MgCl2, 5 mM DTT, 20 mM KCl, 0.01% triton X100 (control) or 20 μl of sample diluted in assay buffer (screening). The plate is incubated at 37° C. for 60 minutes and the reaction is stopped by adding 150 μl of stopping reagent containing the SPA beads. The plate is sealed with an adhesive film, left at ambient temperature for 30 minutes in order to reach equilibrium, and then counted in the Topcount counter. […] The IC50 values of the compounds are calculated by non-linear regression.

Compound | IC50
CC1OC(=O)C2(CC2C)NC(=O)C(c2ccc(O)cc2)NC(=O)C(Cc2c[nH]c3ccc(O)cc23)NC(=O)C(CCC(=O)O)NC(=O)C(Cc2ccccc2)N(C)C(=O)C1NC(=O)CCC1CCCCC1 (stereo not drawn) [Peptide 2] ({Propanoyl(3-cHex)}-T[NMeF]E[Trp(5-OH)][Hpg][X1]; ester 1-C; configuration not given here) | 538 nM
COC(=O)CCC1NC(=O)C(Cc2ccccc2)N(C)C(=O)C(NC(=O)CCC2CCCCC2)C(C)OC(=O)C2(CC2C)NC(=O)C(c2ccc(O)cc2)NC(=O)C(Cc2c[nH]c3ccc(O)cc23)NC1=O (stereo not drawn) [Peptide 3] ({Propanoyl(3-cHex)}-T[NMeF]E(OMe)[Trp(5-OH)][Hpg][X1]; ester 1-C; configuration not given here) | 1300 nM
CC1OC(=O)C2(CC2)NC(=O)C(c2ccc(O)cc2)NC(=O)C(Cc2c[nH]c3ccc(O)cc23)NC(=O)C(CCC(=O)O)NC(=O)C(Cc2ccccc2)N(C)C(=O)C1NC(=O)CCC1CCCCC1 (stereo not drawn) [Peptide 1] ({Propanoyl(3-cHex)}-T[NMeF]E[Trp(5-OH)][Hpg][Ac3c]; ester 1-C; configuration not given here) | 626 nM
